Measured values taken from patent publication US11787802B2, “Dihydrobenzimidazolones for medical treatment” (C4 Therapeutics, Inc., priority 2017, dated 2023).

Molecular target: hCereblon(M1-L442)_hDDB1(M1-H1140) (Homo sapiens (Human), UniProt Q96SW2)
Test: Fluorescence direct binding protocol (tryptophan fluorescence titration)
Conditions: fluorescence titration at 20° C., excited at 280 nm, recorded at 340 nm; protein 5.0 E−8 M; assay buffer 50 mM Hepes 7.4 200 mM NaCl; read-out: Fluorescence h-Cereblon_DDB1 Mean Kd_EQ
How it was run: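 At 20° C., protein at constant concentration was titrated with ligand in DMSO over at least 12 steps, exciting tryptophan at 280 nm and reading emission at 340 nm. Intensities were corrected for dilution and filter effect, and Kd was fitted assuming 1:1 binding.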

hCereblon(M1-L442)_hDDB1(M1-H1140), sequence (Q96SW2 whole entry): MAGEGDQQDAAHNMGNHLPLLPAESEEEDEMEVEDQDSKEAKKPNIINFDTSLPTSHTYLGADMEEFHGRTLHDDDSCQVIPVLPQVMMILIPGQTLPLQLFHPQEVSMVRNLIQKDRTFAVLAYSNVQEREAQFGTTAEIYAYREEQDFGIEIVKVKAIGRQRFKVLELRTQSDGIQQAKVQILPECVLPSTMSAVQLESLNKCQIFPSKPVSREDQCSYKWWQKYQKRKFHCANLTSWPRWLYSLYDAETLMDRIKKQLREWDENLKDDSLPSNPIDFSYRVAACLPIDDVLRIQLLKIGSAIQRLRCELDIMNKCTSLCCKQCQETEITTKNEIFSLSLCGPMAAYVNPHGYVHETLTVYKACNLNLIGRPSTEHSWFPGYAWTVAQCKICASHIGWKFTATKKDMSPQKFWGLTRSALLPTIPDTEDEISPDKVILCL
hCereblon(M1-L442)_hDDB1(M1-H1140), sequence (Q16531 whole entry partner): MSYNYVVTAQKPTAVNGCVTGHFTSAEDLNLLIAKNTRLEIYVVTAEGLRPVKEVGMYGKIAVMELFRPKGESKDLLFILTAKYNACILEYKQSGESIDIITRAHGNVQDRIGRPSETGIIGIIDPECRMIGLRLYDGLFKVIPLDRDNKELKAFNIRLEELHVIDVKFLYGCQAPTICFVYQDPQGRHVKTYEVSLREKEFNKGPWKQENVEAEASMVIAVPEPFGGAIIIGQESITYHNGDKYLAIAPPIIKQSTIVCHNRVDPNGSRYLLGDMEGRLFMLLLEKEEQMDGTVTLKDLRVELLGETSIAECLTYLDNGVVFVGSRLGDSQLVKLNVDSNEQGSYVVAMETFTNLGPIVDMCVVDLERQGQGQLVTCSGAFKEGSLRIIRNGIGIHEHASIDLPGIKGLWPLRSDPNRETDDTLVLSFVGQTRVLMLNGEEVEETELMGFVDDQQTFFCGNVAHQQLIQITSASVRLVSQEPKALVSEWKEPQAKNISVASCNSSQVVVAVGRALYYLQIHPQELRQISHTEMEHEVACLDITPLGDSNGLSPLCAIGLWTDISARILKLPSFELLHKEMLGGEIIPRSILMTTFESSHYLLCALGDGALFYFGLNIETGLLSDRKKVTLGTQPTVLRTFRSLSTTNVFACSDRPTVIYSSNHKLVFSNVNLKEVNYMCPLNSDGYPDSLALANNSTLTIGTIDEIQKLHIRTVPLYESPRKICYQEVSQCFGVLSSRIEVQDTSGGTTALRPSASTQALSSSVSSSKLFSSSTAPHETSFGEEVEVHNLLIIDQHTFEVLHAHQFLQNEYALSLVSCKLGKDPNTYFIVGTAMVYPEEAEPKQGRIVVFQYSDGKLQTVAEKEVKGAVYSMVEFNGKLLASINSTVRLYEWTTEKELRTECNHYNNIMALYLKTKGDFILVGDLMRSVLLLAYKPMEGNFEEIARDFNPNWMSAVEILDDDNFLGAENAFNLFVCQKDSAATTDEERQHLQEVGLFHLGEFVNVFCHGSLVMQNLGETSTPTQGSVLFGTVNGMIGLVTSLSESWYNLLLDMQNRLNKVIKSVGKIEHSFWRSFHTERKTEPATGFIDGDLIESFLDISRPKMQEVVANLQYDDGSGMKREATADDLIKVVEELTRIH

Kd	Compound
159 nM	CC(C)(C)OC(=O)N1CCc2c(C(=O)Nc3ccc4[nH]c(=O)[nH]c4c3)cccc21 [Example 143, tert-Butyl 4-((2-oxo-2,3-dihydro-1H-benzo[d]imidazol-5-yl)carbamoyl)indoline-1-carboxylate]
29 nM	O=C(Nc1ccc2[nH]c(=O)[nH]c2c1)c1cccc2c1CCN2 [Example 144, N-(2-Oxo-2,3-dihydro-1H-benzo[d]imidazol-5-yl)indoline-4-carboxamide]
84 nM	CC(=O)N1CCc2c(C(=O)Nc3ccc4[nH]c(=O)[nH]c4c3)cccc21 [Example 145, 1-Acetyl-N-(2-oxo-2,3-dihydro-1H-benzo[d]imidazol-5-yl)indoline-4-carboxamide]
18 nM	CC(=O)Nc1ccc(NCc2ccc3[nH]c(=O)[nH]c3c2)cc1 [Example 146, N-(4-(((2-Oxo-2,3-dihydro-1H-benzo[d]imidazol-5-yl)methyl)amino)phenyl)acetamide]
338 nM	CNC(=O)c1ccccc1NC(=O)c1ccc2[nH]c(=O)[nH]c2c1 [Example 147, N-(2-(Methylcarbamoyl)phenyl)-2-oxo-2,3-dihydro-1H-benzo[d]imidazole-5-carboxamide]
19 nM	CC(C)(C)OC(=O)Nc1ccc2c(c1)CCN2Cc1ccc2[nH]c(=O)[nH]c2c1 [Example 148, tert-Butyl (1-((2-oxo-2,3-dihydro-1H-benzo[d]imidazol-5-yl)methyl)indolin-5-yl)carbamate]
17 nM	Nc1ccc2c(c1)CCN2Cc1ccc2[nH]c(=O)[nH]c2c1 [Example 149, 5-((5-Aminoindolin-1-yl)methyl)-1,3-dihydro-2H-benzo[d]imidazol-2-one]
3 nM	CC(=O)Nc1ccc2c(c1)CCN2Cc1ccc2[nH]c(=O)[nH]c2c1 [Example 150, N-(1-((2-Oxo-2,3-dihydro-1H-benzo[d]imidazol-5-yl)methyl)indolin-5-yl)acetamide]
52 nM	COC(=O)c1ccccc1C(=O)Nc1ccc2[nH]c(=O)[nH]c2c1 [Example 151, Methyl 2-((2-oxo-2,3-dihydro-1H-benzo[d]imidazol-5-yl)carbamoyl)benzoate]
21 nM	O=c1[nH]c2ccc(NC3CCN(Cc4ccccc4)CC3)cc2[nH]1 [Example 152, 5-((1-Benzylpiperidin-4-yl)amino)-1,3-dihydro-2H-benzo[d]imidazol-2-one]
16 nM	COC(=O)c1ccc(Nc2ccc3[nH]c(=O)[nH]c3c2)nc1 [Example 153, Methyl 6-((2-oxo-2,3-dihydro-1H-benzo[d]imidazol-5-yl)amino)nicotinate]
17 nM	O=c1[nH]c2ccc(OCc3ccccc3)cc2[nH]1 [Example 154, 5-(Benzyloxy)-1,3-dihydro-2H-benzo[d]imidazol-2-one]
22 nM	CNC(=O)c1ccc(Oc2ccc3[nH]c(=O)[nH]c3c2)cc1 [Example 156, N-Methyl-4-((2-oxo-2,3-dihydro-1H-benzo[d]imidazol-5-yl)oxy)benzamide]
55 nM	CCc1nc2cc(C(=O)NCCCCCNC(=O)C[C@@H]3N=C(c4ccc(Cl)cc4)c4c(sc(C)c4C)-n4c(C)nnc43)ccc2n1-c1ccc2[nH]c(=O)[nH]c2c1 [Example A, N-(5-(2-((6S)-4-(4-chlorophenyl)-2,3,9-trimethyl-6H-thieno[3,2-f][1,2,4]triazolo[4,3-a][1,4]diazepin-6-yl)acetamido)pentyl)-2-ethyl-2′-oxo-2′,3′-dihydro-1′H-[1,5′-bibenzo[d]imidazole]-5-carboxamide]
51 nM	CCc1nc2cc(C(=O)NCCOCCOCCNC(=O)C[C@@H]3N=C(c4ccc(Cl)cc4)c4c(sc(C)c4C)-n4c(C)nnc43)ccc2n1-c1ccc2[nH]c(=O)[nH]c2c1 [Example B, (S)—N-(2-(2-(2-(2-(4-(4-Chlorophenyl)-2,3,9-trimethyl-6H-thieno[3,2-f][1,2,4]triazolo[4,3-a][1,4]diazepin-6-yl)acetamido)ethoxy)ethoxy)ethyl)-2-ethyl-2′-oxo-2′,3′-dihydro-1′H-[1,5′-bibenzo[d]imidazole]-5-carboxamide]
19 nM	Cc1sc2c(c1C)C(c1ccc(Cl)cc1)=N[C@@H](CC(=O)NCCOCCOCCNC(=O)c1ccc3c(c1)nc(-c1ccnc4ccccc14)n3-c1ccc3[nH]c(=O)[nH]c3c1)c1nnc(C)n1-2 [Example C, (S)—N-(2-(2-(2-(2-(4-(4-Chlorophenyl)-2,3,9-trimethyl-6H-thieno[3,2-f][1,2,4]triazolo[4,3-a][1,4]diazepin-6-yl)acetamido)ethoxy)ethoxy)ethyl)-2′-oxo-2-(quinolin-4-yl)-2′,3′-dihydro-1′H-[1,5′-bibenzo[d]imidazole]-5-carboxamide]
7 nM	Cc1sc2c(c1C)C(c1ccc(Cl)cc1)=N[C@@H](CC(=O)NCCCCCNC(=O)c1cccc3c1CCN3C(=O)Nc1ccc3[nH]c(=O)[nH]c3c1)c1nnc(C)n1-2 [Example D, N4-[5-[[2-[(9S)-7-(4-Chlorophenyl)-4,5,13-trimethyl-3-thia-1,8,11,12-tetrazatricyclo[8.3.0.02,6]trideca-2(6),4,7,10,12-pentaen-9-yl]acetyl]amino]pentyl]-N1-(2-oxo-1,3-dihydrobenzimidazol-5-yl)indoline-1,4-dicarboxamide]
